According to article PMC6226472, “Cardol triene inhibits dengue infectivity by targeting kl loops and preventing envelope fusion” (Scientific Reports, 2018):
Where two headings read alike, the source gives them in different places.

Columns and labels:
[1] = Cytotoxic concentration (CC50), MTS; type: cell-based; conditions: African green monkey, Vero cells
Protocol: Cytotoxic concentrations (CC50) were also studied using Vero cells. Briefly, the 10^4 cells were seeded into each well of 96-well plates. After an overnight incubation, phenolic lipids were serially diluted in DMSO to the final concentrations as follows; 25, 50, 100, 200, 300, 400, and 500 µM. Each concentration was performed in quadruplicates. DMSO at 1% was used as a mock treatment referring to 100% cell viability. Cells were incubated for 48 h before cell viability was accessed using CellTiler 96® Aqueous One Solution Cell Proliferation Assay kit (Promega, Wisconsin, USA). Non-linear regression analysis was used to determine cytotoxic concentrations (CC50) of each experiment.

[2] = system: DENV2 NGC; test: Efficacy study (EC50) in DENV2 infected Vero cells, plaque titration; type: cell-based, Dengue virus; conditions: for EC50: DENV2 NGC (M.O.I. of 0.1) infected Vero cells, plaque titration, 3 days; for TI (therapeutic index, CC50/EC50): Vero CC50 / DENV2 EC50
Protocol: Next, we studied the efficacies (EC50) of the phenolic lipid homologues against DENV2 infectivity in Vero cells. Briefly, compounds at 10 different concentrations were added to DENV2-infected Vero cells (M.O.I. of 0.1) during and post infection and the viral inhibition was determined by plaque titration. […] Noted that anacardic acids were major components of CNSL extracts and all homologues were purified directly from CNSL itself.
Next, each homologue was analyzed for effective concentration (EC50). Vero (5 × 10^4) cells were seeded, and infected with DENV2 (M.O.I. of 0.1) as previously described. Phenolic lipid mixtures and homologues were serially diluted in DMSO to the final concentrations as follows; 0, 0.5, 1, 1.5, 2, 2.5, 5, 7.5, 10, 25, and 50 µM. DMSO at the concentration of 1% was used as a mock treatment referring to 100% infection. Infected cells were treated with the designated compounds during and post infection. Supernatants were collected at 3 days after infection for analysis of virion production by plaque titration. Non-linear regression analysis was used to determine the effective concentrations. […] The therapeutic index (TI) was a ration of CC50/EC50 of the compound.

[3] = system: BHK-21/DENV2 replicon cells; test: Replicon inhibition study, RT-qPCR of DENV2 NS1; type: cell-based, Dengue virus; conditions: 72 h
Protocol: We analyzed the replication inhibition using BHK-21/DENV2 replicon cells stably expressed the non-structural proteins. Cardol triene at 10 µM and 20 µM were added to the replicon cells for 72 h and the replication inhibition was accessed by RT-qPCR of DENV2 NS1. Ribavirin, a known inhibitor of flaviviral replication, was used as a positive inhibition control. […] Replicon cell viability under cardol triene treatment was also analyzed using an MTS assay. […] Therefore, we concluded that cardol triene inhibited DENV RNA replicon replication, potentially in dose-dependent manner.
BHK-21 (5 × 10^4) cells expressing DENV-2 replicon (BHK-21/DENV2)[44] were seeded as previously described. Cardol triene at 10 µM and 20 µM, DMSO, and ribavirin (TargetMol, USA) were added to the replicon cells and incubated at 37 °C for 3 days. Cells lysates were collected and viral RNA was quantified by RT-qPCR as previously described. Data were reported as percent inhibition compared with ribavirin. Three biological replicates were performed and results were means and SEM of all replicates.

[4] = system: K562; parameters: method as in PMID 25726174; conditions: cited from earlier work
[5] = system: AGS; parameters: method as in PMID 25726174; conditions: cited from earlier work
[6] = system: hepatitis C virus (HCV); parameters: method as in PMID 25658101; conditions: cited from earlier work
[7] = Solubility in DMSO; type: physicochemical
[8] = Dengue virus, 72 h, read-out: EC50

Structure (SMILES) | CC50 at 48 h [1] | EC50 [2, 8] | TI (therapeutic index, CC50/EC50) [2] | further results
C=CC/C=C/C/C=C/CCCCCCCc1cccc(O)c1C(=O)O [Anacardic acid triene, 6-[8(Z), 11(Z), 14-pentadecatrienyl]salicylic acid] | 115 ± 14.1 µM | 7.48 ± 2.14 µM | 15.38 | 
CCCCCCCCCCCCCCCc1cccc(O)c1 [Cardanol saturated] | 43.5 ± 1.1 µM | 5.89 ± 2.83 µM | 7.39 | 
NC(=O)c1ncn([C@@H]2O[C@H](CO)[C@@H](O)[C@H]2O)n1 [ribavirin, reference compound] |  |  |  | DENV2 RNA inhibition ([3]; 10 µM): 98.42 ± 0.68%; DENV2 RNA inhibition ([3]; 20 µM): 98.09 ± 0.72%
CCCCCCCCCCCCCCCc1cc(O)cc(O)c1 [Cardol saturated] | 58.75 ± 0.43 µM | 12.7 ± 0.67 µM | 4.62 | 
CCCCCCCCCCCCCCCc1cccc(O)c1C(=O)O [Anacardic acid saturated, 6-pentadecylsalicylic acid] | 66.3 ± 1.58 µM | 4.31 ± 1.17 µM | 15.39 | CC50 [4]: 25.4 µM; CC50 [5]: 41.6 µM; EC50 [6]: 7.25 µM
CCCCCC/C=C\CCCCCCCc1cccc(O)c1C(=O)O [Anacardic acid monoene, 6-[8(Z)-pentadecenyl]salicylic acid] | 74 ± 0.85 µM | 12.6 ± 0.84 µM | 5.88 | 
C=CC/C=C/C/C=C/CCCCCCCc1cccc(O)c1 [Cardanol triene, 3-[8(Z), 11(Z), 14-pentadecatrienyl]phenol] |  |  |  | solubility in DMSO [7]: insoluble
CCC/C=C/C/C=C/CCCCCCCc1cccc(O)c1C(=O)O [Anacardic acid diene, 6-[8(Z), 11(Z)-pentadecadienyl]salicylic acid] | 112 ± 8.57 µM |  |  | EC50 [2]: Not inhibited
